From patent US12486269B2 (Aconcagua Bio, Inc., priority 2024, dated 2025)

What was measured:
[1] = biological target: T1, human calcitonin receptor (CTR) (Homo sapiens, UniProt P30988); test: Calcitonin Receptor (CTR) cAMP Assay; type: cell-based; settings: COS7-human CTR Clone #2 stable cell line, cAMP dynamic 2 kit, 30 min; read-out: Calcitonin Receptor cAMP Stimulation Activity: EC50
T1 construct: expressed in transfected cells; host or cells: COS-7 (COS7-human CTR Clone #2)
T1 sequence (P30988 25-474): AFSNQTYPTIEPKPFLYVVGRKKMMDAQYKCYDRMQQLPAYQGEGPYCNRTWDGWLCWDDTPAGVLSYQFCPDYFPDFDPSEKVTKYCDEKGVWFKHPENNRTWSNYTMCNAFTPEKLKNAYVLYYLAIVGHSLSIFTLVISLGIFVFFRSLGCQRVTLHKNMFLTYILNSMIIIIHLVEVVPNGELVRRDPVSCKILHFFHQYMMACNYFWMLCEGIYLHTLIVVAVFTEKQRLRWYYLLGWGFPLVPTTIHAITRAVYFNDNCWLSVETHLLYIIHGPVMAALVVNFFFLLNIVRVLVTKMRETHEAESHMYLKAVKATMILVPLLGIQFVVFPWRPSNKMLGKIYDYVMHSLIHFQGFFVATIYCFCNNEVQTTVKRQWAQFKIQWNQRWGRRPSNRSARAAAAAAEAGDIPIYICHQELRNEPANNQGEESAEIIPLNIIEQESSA
Summary of the method: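 cAMP accumulation was measured by HTRF cAMP dynamic 2 read at 665/615 nm, 1 h at room temperature, with results scaled between vehicle and positive control. Before detection, COS7-human CTR stable cells were stimulated 30 min at 37 °C with compound (4-fold dilutions) in IBMX-containing HBSS/HEPES/casein buffer.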

[2] = biological target: T2, COS-7/AMY3 (human calcitonin receptor (CTR) and RAMP3) (Homo sapiens, UniProt O60896+P30988); test: Amylin Receptor cAMP Assay II; type: cell-based; settings: values marked **: Amylin Receptor cAMP Assay II; COS-7/AMY3 cells, cAMP dynamic 2 kit, 30 min; read-out: Amylin Receptor cAMP Stimulation Activity: EC50
T2 construct: expressed in transfected cells; host or cells: COS-7
Summary of the method: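 Agonist-induced cAMP was quantified by HTRF ratio at 665/615 nm and expressed as % of the window from vehicle to MAX control. Stimulation lasted 30 min at 37 °C in HBSS/20 mM HEPES/0.5 mM IBMX/0.1% casein, using stable human CTR+RAMP3 (AMY3) COS-7 cells at 2000 per well.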

T2 sequence (O60896 24-148, one chain of several): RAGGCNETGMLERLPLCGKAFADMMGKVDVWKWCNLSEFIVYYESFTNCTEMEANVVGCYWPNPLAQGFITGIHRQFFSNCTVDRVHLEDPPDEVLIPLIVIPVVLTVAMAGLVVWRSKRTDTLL

SMILES | EC50 [1] [nM] | EC50 [2] [nM]
O=C1c2c(nc(CCc3ccc(F)cc3)c(-c3n[nH]c(=O)o3)c2-c2cc3ccnc(N[C@@H]4CCOc5ccccc54)c3s2)[C@@H]2CCCN12 [Compound 170] | 1.19 | 33.1
COc1cccc2c1CC[C@H]2Nc1nccc2cc(-c3c4c(nc(CCc5cccc(C(F)(F)F)c5)c3-c3n[nH]c(=O)o3)[C@@H]3CCCN3C4=O)sc12 [Compound 171, 5-((S)-4-(7-(((R)-4-methoxy-2,3-dihydro-1H-inden-1-yl)amino)thieno[2,3-c]pyridin-2-yl)-5-oxo-2-(3-(trifluoromethyl)phenethyl)-7,8,9,9a-tetrahydro-5H-pyrido[2,3-a]pyrrolizin-3-yl)-1,3,4-oxadiazol-2(3H)-one] | 1.52 | 71.4
COc1cccc2c1CC[C@H]2Nc1nccc2cc(-c3c4c(nc(CCC5CCCCC5)c3-c3n[nH]c(=O)o3)[C@@H]3CCCN3C4=O)sc12 [Compound 172, 5-((S)-2-(2-cyclohexylethyl)-4-(7-(((R)-4-methoxy-2,3-dihydro-1H-inden-1-yl)amino)thieno[2,3-c]pyridin-2-yl)-5-oxo-7,8,9,9a-tetrahydro-5H-pyrido[2,3-a]pyrrolizin-3-yl)-1,3,4-oxadiazol-2(3H)-one] | 2.06 | 51.1
COc1c(Cl)ccc2c1CC[C@H]2Nc1nccc2cc(-c3c4c(nc(CCc5ccc(F)cc5)c3-c3n[nH]c(=O)o3)[C@@H]3CCCN3C4=O)sc12 [Compound 173, 5—((S)-4-(7-(((R)-5-chloro-4-methoxy-2,3-dihydro-1H-inden-1-yl)amino)thieno[2,3-c]pyridin-2-yl)-2-(4-fluorophenethyl)-5-oxo-7,8,9,9a-tetrahydro-5H-pyrido[2,3-a]pyrrolizin-3-yl)-1,3,4-oxadiazol-2(3H)-one] | 0.788 | 16.9
COc1cccc2c1CC[C@H]2Nc1nccc2cc(-c3c4c(nc(CCc5ccc(F)cc5)c3-c3n[nH]c(=O)o3)[C@@H]3COCCN3C4=O)sc12 [Compound 174, (R)-2-(4-fluorophenethyl)-4-(7-(((R)-4-methoxy-2,3-dihydro-1H-inden-1-yl)amino)thieno[2,3-c]pyridin-2-yl)-3-(5-oxo-4,5-dihydro-1,3,4-oxadiazol-2-yl)-7,8,10,10a-tetrahydro-5H-pyrido[2′,3′:3,4]pyrrolo[2,1-c][1,4]oxazin-5-one] | 0.347 | 31.9
COc1cccc2c1CC[C@H]2Nc1nccc2cc(-c3c(-c4n[nH]c(=O)o4)c(CCc4ccc(F)cc4)nc4c3S(=O)(=O)N3CCC[C@@H]43)sc12 [Compound 175, 5-((S)-2-(4-fluorophenethyl)-4-(7-(((R)-4-methoxy-2,3-dihydro-1H-inden-1-yl)amino)thieno[2,3-c]pyridin-2-yl)-5,5-dioxido-7,8,9,9a-tetrahydropyrrolo[1′,2′:2,3]isothiazolo[4,5-b]pyridin-3-yl)-1,3,4-oxadiazol-2(3H)-one] | 0.741 | 26.8
N#Cc1ccc(Cn2c(=O)oc3cc(-c4c5c(nc(CCc6ccc(F)cc6)c4-c4n[nH]c(=O)o4)[C@@H]4CCCN4C5=O)ccc32)nc1 [Compound 176, 6-[[6-[(9aS)-2-[2-(4-fluorophenyl)ethyl]-5-oxo-3-(2-oxo-3H-1,3,4-oxadiazol-5-yl)-7,8,9,9a-tetrahydropyrido[2,3-a]pyrrolizin-4-yl]-2-oxo-1,3-benzoxazol-3-yl]methyl]pyridine-3-carbonitrile] | 0.557 | 10.7
O=C1c2c(nc(CCc3ccc(F)cc3)c(-c3n[nH]c(=O)o3)c2-c2cnc3c(ccn3Cc3ccc(F)cn3)c2)[C@@H]2CCCN12 [Compound 177, (S)-5-(2-(4-fluorophenethyl)-4-(1-((5-fluoropyridin-2-yl)methyl)-1H-pyrrolo[2,3-b]pyridin-5-yl)-5-oxo-7,8,9,9a-tetrahydro-5H-pyrido[2,3-a]pyrrolizin-3-yl)-1,3,4-oxadiazol-2(3H)-one] | 39.4 | 1810
COc1cccc2c1CC[C@H]2Nc1nccc2cc(-c3c4c(nc(CCc5ccc(F)cc5)c3-c3n[nH]c(=O)o3)[C@]3(C)CCCN3C4=O)sc12 [Compound 178, 5-((S)-2-(4-fluorophenethyl)-4-(7-(((R)-4-methoxy-2,3-dihydro-1H-inden-1-yl)amino)thieno[2,3-c]pyridin-2-yl)-9a-methyl-5-oxo-7,8,9,9a-tetrahydro-5H-pyrido[2,3-a]pyrrolizin-3-yl)-1,3,4-oxadiazol-2(3H)-one] | 3.19 | 203
COc1cccc2c1CC[C@H]2Nc1nccc2cc(-c3c4c(nc(CCc5ccc(F)cc5)c3-c3n[nH]c(=O)o3)[C@]3(C)COCCN3C4=O)sc12 [Compound 179, (R)-2-(4-fluorophenethyl)-4-(7-(((R)-4-methoxy-2,3-dihydro-1H-inden-1-yl)amino)thieno[2,3-c]pyridin-2-yl)-10a-methyl-3-(5-oxo-4,5-dihydro-1,3,4-oxadiazol-2-yl)-7,8,10,10a-tetrahydro-5H-pyrido[2′,3′:3,4]pyrrolo[2,1-c][1,4]oxazin-5-one] | 1.25 | 34.2
COc1cccc2c1CC[C@H]2Nc1nccc2cc(-c3c4c(nc(CCc5ccc(F)cc5)c3-c3n[nH]c(=O)o3)C35CC3CCN5C4=O)sc12 (stereo partly drawn) [Compound 180, 5-(8-(4-fluorophenethyl)-6-(7-(((R)-4-methoxy-2,3-dihydro-1H-inden-1-yl)amino)thieno[2,3-c]pyridin-2-yl)-5-oxo-1,1a,2,3-tetrahydro-5H-cyclopropa[g]pyrido[2,3-a]pyrrolizin-7-yl)-1,3,4-oxadiazol-2(3H)-one] | 0.559 | 12.7
COc1cccc2c1CC[C@H]2Nc1nccc2cc(-c3c(-c4n[nH]c(=O)o4)c(CCc4ccc(F)cc4)nc4c3C(=O)N3C[C@H]5C[C@@]43C5)sc12 [Compound 181, (R)-5-(2-(4-fluorophenethyl)-4-(7-((4-methoxy-2,3-dihydro-1H-inden-1-yl)amino)thieno[2,3-c]pyridin-2-yl)-5-oxo-8,9-dihydro-5H,7H-8,9a-methanopyrido[2,3-a]pyrrolizin-3-yl)-1,3,4-oxadiazol-2(3H)-one] | 0.105 | 3.5
COc1cccc2c1CC[C@H]2Nc1nccc2cc(-c3c4c(nc(CCc5ccc(F)cc5)c3-c3n[nH]c(=O)o3)[C@H]3N(CCC3(C)C)C4=O)sc12 [Compound 182, 5-((S)-2-(4-fluorophenethyl)-4-(7-(((R)-4-methoxy-2,3-dihydro-1H-inden-1-yl)amino)thieno[2,3-c]pyridin-2-yl)-9,9-dimethyl-5-oxo-7,8,9,9a-tetrahydro-5H-pyrido[2,3-a]pyrrolizin-3-yl)-1,3,4-oxadiazol-2(3H)-one] | 7.85 | 52.9
O=C1c2c(nc(CCc3ccc(F)cc3)c(-c3n[nH]c(=O)o3)c2-c2cc3ccnc(N[C@@H]4CCc5c(F)cc(F)cc54)c3s2)[C@@H]2CCCN12 [Compound 183, 5-((S)-4-(7-(((R)-4,6-difluoro-2,3-dihydro-1H-inden-1-yl)amino)thieno[2,3-c]pyridin-2-yl)-2-(4-fluorophenethyl)-5-oxo-7,8,9,9a-tetrahydro-5H-pyrido[2,3-a]pyrrolizin-3-yl)-1,3,4-oxadiazol-2(3H)-one] | 0.143 | 4.23
